Source: the CheMixHub ionic liquid set
“And” between values parts separate entries of the source, which are not always exact repeats. Equal entries are not always repeated.

Assay: xn = mol fraction of the nth substance listed
Settings: for electrical conductivity: 298 K

CCCn1cc[n+](C)c1.[Br-] + O
101 kPa
Settings	electrical conductivity
x2 = 0.22	0.14 S/m and 0.17 S/m
x2 = 0.88	9.16 S/m
x2 = 0.93	9.89 S/m
x2 = 0.98	6.44 S/m

100 kPa
Settings	viscosity [mPa·s]
303.15 K, x1 = 0.4005	29.2
323.15 K, x1 = 0.0497	1.09

CCCn1cc[n+](C)c1.[Br-] + CC1COC(=O)O1
101 kPa
Settings	electrical conductivity [S/m]
x2 = 0.1	0.04
x2 = 0.64	0.5
x2 = 0.67	0.52
x2 = 0.72	0.58

CC(=O)[O-].CC[n+]1ccn(C)c1 + CCO + O
viscosity [mPa·s], 101 kPa
Settings	298.15 K	313.15 K	328.15 K	343.15 K
x2 = 0.1044, x3 = 0.8465	3.75	2.34	1.6	1.15
x2 = 0.1179, x3 = 0.7408	9.38	5.57	3.58	2.49
x2 = 0.2002, x3 = 0.3044	31.9	18.16	11.45	7.86
x2 = 0.2242, x3 = 0.3101	28	16.28	10.41	7.22
x2 = 0.2489, x3 = 0.6021	8.23	5.06	–	–
x2 = 0.2635, x3 = 0.6879	3.8	2.41	1.64	1.19
x2 = 0.2995, x3 = 0.4047	14.14	8.83	5.91	4.2
x2 = 0.4124, x3 = 0.1068	20.57	12.7	8.57	6.09
x2 = 0.463, x3 = 0.2523	10.07	6.66	–	–
x2 = 0.4916, x3 = 0.4053	4.47	2.99	–	–
x2 = 0.5914, x3 = 0.1068	8.43	–	–	–
x2 = 0.7052, x3 = 0.1967	3.19	–	–	–
